Common to all, as to assay type: cell-based
Assay [1] has as its target T1, androgen receptor (AR) (Homo sapiens, UniProt P10275, T878A).
T1 construct: endogenous in cells; host or cells: LNCAP
T1 sequence (P10275 1-920 T878A): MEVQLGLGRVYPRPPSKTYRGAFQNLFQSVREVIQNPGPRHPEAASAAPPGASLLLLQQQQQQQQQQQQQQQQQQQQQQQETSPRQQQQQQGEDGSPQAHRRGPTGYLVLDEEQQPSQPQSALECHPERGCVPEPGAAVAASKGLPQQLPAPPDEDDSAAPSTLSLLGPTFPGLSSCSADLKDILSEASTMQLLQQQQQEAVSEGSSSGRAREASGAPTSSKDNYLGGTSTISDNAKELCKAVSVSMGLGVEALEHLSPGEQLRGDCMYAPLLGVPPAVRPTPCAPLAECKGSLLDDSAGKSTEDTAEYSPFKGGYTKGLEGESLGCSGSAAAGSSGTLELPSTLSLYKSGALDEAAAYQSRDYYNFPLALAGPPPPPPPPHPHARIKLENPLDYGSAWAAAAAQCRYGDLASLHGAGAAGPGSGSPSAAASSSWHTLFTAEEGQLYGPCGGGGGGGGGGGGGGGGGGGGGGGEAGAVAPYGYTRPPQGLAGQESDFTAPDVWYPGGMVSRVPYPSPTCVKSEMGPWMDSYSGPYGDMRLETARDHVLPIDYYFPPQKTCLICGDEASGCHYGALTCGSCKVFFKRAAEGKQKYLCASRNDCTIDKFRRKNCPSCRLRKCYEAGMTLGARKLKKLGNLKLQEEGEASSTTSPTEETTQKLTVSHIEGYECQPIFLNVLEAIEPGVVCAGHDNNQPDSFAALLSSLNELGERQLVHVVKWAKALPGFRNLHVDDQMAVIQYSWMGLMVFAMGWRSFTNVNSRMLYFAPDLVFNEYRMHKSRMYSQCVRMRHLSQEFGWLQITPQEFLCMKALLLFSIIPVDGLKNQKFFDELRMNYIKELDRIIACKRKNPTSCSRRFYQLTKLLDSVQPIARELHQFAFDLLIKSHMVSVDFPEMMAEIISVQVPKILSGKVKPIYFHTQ
Description: AR degradation activity in LNCAP cells (Western blot). The conditions noted are these: LNCAP cell line, 24 hours after administration; DC50 = concentration for 50% target protein degradation. The procedure:
(§1) LNCAP, VCAP and 22Rv1 cells were plated in 24-well plates at 1.5×10E5 cells/well in the RPMI growth medium containing 10% FBS and 1% Penicillin Streptomycin, and then incubated at 37° C. overnight. The following day, the test compound was administered to the cells by using 1000× compound stock solution prepared in DMSO at various concentrations. After administration of the compound, the cells were then incubated at 37° C. for 24 hours. Upon completion, the cells were washed with PBS and protein was collected in Laemmli sample buffer (1×; VWR International). Proteins in cell lysate were separated by SDS-PAGE and transferred to Odyssey nitrocellulose membranes (Licor) with iblot® dry blotting transfer system (ThermoFisher). Nonspecific binding was blocked by incubating membranes with Intercept Blocking Buffer (Licor) for 1 hour at room temperature with gentle shaking. The membranes were then incubated overnight at 4° C. with Primary antibodies rabbit anti-AR (1:1,000, Cell Signaling, 5153) and mouse anti-GAPDH (1:5,000, Santa Cruz Biotechnology, sc-47724) diluted in Intercept Blocking Buffer containing 0.1% Tween 20. After washing 3 times with TBS-T, the membranes were incubated with IRDye® […] goat anti-mouse IgG (1:20,000, Licor) or IRDye®8000W goat anti-rabbit IgG (1:20,000, Licor) for 1 hour. After TBS-T washes, membranes were rinsed in TBS and scanned on Odyssey® CLx Imaging System (Licor). The bands were quantified using Image Studio™ Software (Licor).
(§2) Table 4 summarizes the androgen receptor (AR) degradative activity and cell growth inhibition of exemplary compounds in (a) LNCAP, VCAP, and 22Rv1 cell lines 24 hours after administration of the compound; (b) RAMOS cell line 3 days after administration of the compound; and (c) VCAP cell line 6 days after administration of the compound. DC50: compound concentration needed for 50% target protein degradation.
For orientation: A western blot detects proteins with antibodies after separation by electrophoresis.

The subject of assay [2] is VCAP cells. Description: Cell growth inhibition for VCAP cells (CellTiter-Glo). The conditions noted are these: Homo sapiens, 144 h; VCAP cell line, 6 days after administration, 0.1 nM R1881, charcoal-stripped FBS. The method, then: VCAP cells (ATCC) were seeded in 96-well plates at 3000 cell/well in 80 μl of DMEM growth medium containing 10% charcoal-stripped FBS (CSS) and 1% Penicillin/Streptomycin. Cells were incubated at 37° C. overnight. The following day, the test compound was administered to the cells by using 10× compound stock solution prepared in growth medium at various concentrations. Four hours later, 0.1 nM R1881 (Sigma) was administered to the cells by using 10× compound stock solution prepared in growth medium. 0.1% DMSO with or without 0.1 nM R1881 was administered as control. Cells were then incubated at 37° C. for 6 days. Before CelTiter-Glo assay, the plates were equilibrated at room temperature for approximately 10 minutes. 100 ul of CellTiter-Glo® Reagent (Promega) was added to each well. The plates were then incubated at room temperature for 10 minutes and luminescence was recorded by EnSpire plate reader (PerkinElmer).
as §2
In general terms: In ATP-based viability assays light output follows the ATP content of the culture.

Assay [3] has as its target T2, androgen receptor (AR) (Homo sapiens, UniProt P10275).
T2 construct: endogenous in cells; host or cells: VCAP
T2 sequence (P10275 1-920): T1 sequence (P10275 1-920 T878A) with A878T
Briefly: AR degradation activity in VCAP cells (Western blot). The conditions noted are these: VCAP cell line, 24 hours after administration; DC50 = concentration for 50% target protein degradation. The method, then:
as §1, §2

Assay [4] relates to RAMOS cells. Description: Cell growth inhibition for Ramos cells (CellTiter-Glo). The conditions noted are these: Homo sapiens, 72 h; RAMOS cell line, 3 days after administration. The method, then: RAMOS cells (ATCC) were seeded in 96-well plates at 16,000 cell/well in 90 μl of RPMI growth medium containing 10% Heat-Inactivated Fetal Bovine Serum and 1% Penicillin/Streptomycin. The test compound was administered to the cells by using 10× compound stock solution prepared in growth medium at various concentrations. After administration of the compound, cells were then incubated at 37° C. for 3 days. Before CellTiter-Glo assay, the plates were equilibrated at room temperature for approximately 10 minutes. 100 ul of CellTiter-Glo® Reagent (Promega) was added to each well. The plates were then incubated at room temperature for 10 minutes and luminescence was recorded by EnSpire plate reader (PerkinElmer).
as §2

Assay [5] has as its system androgen receptor (AR). Briefly: AR degradation activity in 22Rv1 cells (Western blot). The conditions noted are these: 22Rv1 cell line, 24 hours after administration; DC50 = concentration for 50% target protein degradation. The method, then:
as §1, §2

Positions count from the first letter of the chain named.

As a reminder, the DC50 is the midpoint of the concentration-degradation curve. Read a low DC50 as a more potent degrader. What is called GI50 is the concentration giving 50% growth inhibition. A high value points to lower sensitivity of the cells. Take `CC1(C)C(NC(=O)c2ccc(N3CCC(CN4CCN(c5ccc6c(c5)C(=O)N(C5CCC(=O)NC5=O)C6=O)CC4)CC3)nc2)C(C)(C)C1Oc1ccc(C#N)c2ncccc12` (stereo not drawn) [Compound 2-13, N-(1,3-trans)-3-((8-cyanoquinolin-5-yl)oxy)-2,2,4,4-tetramethylcyclobutyl)-6-(4-((4-(2-(2,6-dioxopiperidin-3-yl)-1,3-dioxoisoindolin-5-yl)piperazin-1-yl)methyl)piperidin-1-yl)nicotinamide]: the DC50 in assay [1] and in assay [3] was 0.7 nM each time. Moreover, the GI50 was 47.6 nM in assay [2] and more than 3000 nM in assay [4].
Regarding `CC1(C)C(NC(=O)c2cnc(N3CCC(CN4CCN(c5ccc6c(c5)C(=O)N(C5CCC(=O)NC5=O)C6=O)CC4)CC3)nc2)C(C)(C)C1Oc1ccc(C#N)c2ncccc12` (stereo not drawn) [Compound 2-18, N-(1,3-trans)-3-((8-cyanoquinolin-5-yl)oxy)-2,2,4,4-tetramethylcyclobutyl)-2-(4-((4-(2-(2,6-dioxopiperidin-3-yl)-1,3-dioxoisoindolin-5-yl)piperazin-1-yl)methyl)piperidin-1-yl)pyrimidine-5-carboxamide], the DC50 in assay [1] and in assay [3] was 0.4 nM in each case.
As to `CC1(C)[C@H](NC(=O)c2ccc(N3CCC(CN4CCN(c5ccc6c(c5)C(=O)N(C5CCC(=O)NC5=O)C6=O)CC4)CC3)nn2)C(C)(C)[C@H]1Oc1ccc(C#N)c2ncccc12` (stereo partly drawn) [Compound 2-19], the DC50 in assay [1] stood at 0.5 nM; in assay [3], 1 nM.
Consider `CC1(C)C(NC(=O)c2ccc(N3CCC(CN4CCN(c5ccc6c(c5)C(=O)N(C5CCC(=O)NC5=O)C6=O)CC4)CC3)cc2)C(C)(C)C1Oc1ccc(C#N)c2ncccc12` (stereo not drawn) [Compound 2-21, N-(1,3-trans)-3-((8-cyanoquinolin-5-yl)oxy)-2,2,4,4-tetramethylcyclobutyl)-4-(4-((4-(2-(2,6-dioxopiperidin-3-yl)-1,3-dioxoisoindolin-5-yl)piperazin-1-yl)methyl)piperidin-1-yl)benzamide], for which the figures for the DC50 in assay [1], in assay [3] and in assay [5] were 2.2 nM, 1.2 nM and 0.9 nM, respectively. In addition, the GI50 was 18 nM in assay [2] and more than 3000 nM in assay [4].
Take `CC1(C)[C@H](NC(=O)c2ccc(N3CCC(CN4CCN(c5ccc6c(c5)C(=O)N(C5CCC(=O)NC5=O)C6=O)CC4)CC3)c(F)c2)C(C)(C)[C@H]1Oc1ccc(C#N)c2ncccc12` (stereo partly drawn) [Compound 2-22]: the DC50 in assay [1] amounted to 1 nM; in assay [3], 1.7 nM; in assay [5] it was 2.8 nM. This compound gave a GI50 in assay [2] of 8 nM.
As to `CC1(C)C(NC(=O)c2ccc(N3CCC(CN4CCN(c5ccc6c(c5)CN([C@H]5CCC(=O)NC5=O)C6=O)CC4)CC3)nc2)C(C)(C)C1Oc1ccc(C#N)c2ncccc12` (stereo partly drawn) [Compound 2-29], the DC50 in assay [1] worked out at 0.1 nM; in assay [5] it was 0.13 nM. Besides, the values for the GI50 in assay [2] and in assay [4] were 2.1 nM and more than 3000 nM, respectively.
Regarding `CC1(C)C(NC(=O)c2ccc(N3CCC(CN4CCN(c5ccc6c(c5)CN([C@H]5CCC(=O)NC5=O)C6=O)CC4)CC3)c(F)c2)C(C)(C)C1Oc1ccc(C#N)c2ncccc12` (stereo partly drawn) [Compound 2-32], the DC50 is 0.1 nM in assay [1], 0.3 nM in assay [3] and 0.25 nM in assay [5]. The GI50 in assay [2] is 5.7 nM; in assay [4], more than 3000 nM.
Consider `CC1(C)C(NC(=O)c2ccc(N3CCC(CCN4CCN(c5ccc6c(c5)C(=O)N(C5CCC(=O)NC5=O)C6=O)CC4)CC3)cc2)C(C)(C)C1Oc1ccc(C#N)c2ncccc12` (stereo not drawn) [Compound 2-43, N-(1,3-trans)-3-((8-cyanoquinolin-5-yl)oxy)-2,2,4,4-tetramethylcyclobutyl)-4-(4-(2-(4-(2-(2,6-dioxopiperidin-3-yl)-1,3-dioxoisoindolin-5-yl)piperazin-1-yl)ethyl)piperidin-1-yl)benzamide], for which the figures for the DC50 in assay [1] and in assay [3] were 2 nM and 1.8 nM, respectively. Moreover, the GI50 in assay [2] is 31.2 nM; in assay [4], more than 3000 nM.
In turn, `CC1(C)[C@H](NC(=O)c2ccc(N3CCC(CN4CCN(c5ccc6c(c5)CN(C5CCC(=O)NC5=O)C6=O)CC4)CC3)c(F)c2)C(C)(C)[C@H]1Oc1ccc(C#N)c2ncccc12` (stereo partly drawn) [Compound 2-51, N-((1r,3r)-3-((8-cyanoquinolin-5-yl)oxy)-2,2,4,4-tetramethylcyclobutyl)-4-(4-((4-(2-(2,6-dioxopiperidin-3-yl)-1-oxoisoindolin-5-yl)piperazin-1-yl)methyl)piperidin-1-yl)-3-fluorobenzamide] showed a DC50 in assay [1] of 0.5 nM. The figures for the GI50 in assay [2] and in assay [4] were 11 nM and more than 3000 nM, respectively.

The values above are taken from patent US11312702B2, “Substituted quinoline-8-carbonitrile derivatives having androgen receptor degradation activity and uses thereof” (ACCUTAR BIOTECHNOLOGY INC., priority 2019, dated 2022).
